These results are taken from patent US7652149B2, “Crystalline pyrazoles” (Pharmacia & Upjohn Company LLC, priority 2004, dated 2010).

The nature of this data set: Suspension crystallization: relative thermodynamic stability of Forms I and II, Tt bracketed. The class given is physicochemical. The following applies: for temperature at which the form is the equilibrium solid phase (thermodynamically more stable): mixture of Forms I and II suspended in toluene, at least three days, PXRD. From the text: In this Example, the transition temperature between Forms I and II is described. Form I and Form II are enantiotropic, which means that one polymorph is stable at temperatures below a transition temperature, Tt, but the other polymorph is stable at temperatures above Tt. The two solid phases have equal free energies at the transition temperature. Knowledge of the thermodynamic stability relationship is necessary for the selection of suitable crystallization conditions to produce Form I, and for formulation development and commercial manufacturing. It is important to determine Tt for the preparation and processing of bulk drug.
Materials. The Form I sample used in this study was 100% pure when tested by HPLC. Form II was prepared by heating Form I to 155° C. for 3 days in a dry oven and cooled to room temperature. This Form II sample was free of chemical degradation when tested by HPLC.
Methods. Suspension crystallization. The relative stability relationship between Forms I and II at a specific temperature was bracketed by suspending a mixture of the two polymorphs in toluene in a closed glass vial that was equilibrated at the temperature of interest. Excess solid of one polymorph was first added to saturate toluene in a glass vial at the chosen temperature. The other polymorph was added at least half an hour later. The suspension was stirred continuously for at least three days. A portion of the suspension was withdrawn and immediately filtered. The filtered solid was analyzed using PXRD to identify the equilibrium solid at that temperature. […] By repeating the experiment at different temperatures, the Tt was bracketed.

With `NS(=O)(=O)c1ccc(-n2nc(C(F)(F)F)cc2-c2ccc(F)cc2)cc1` [Form I, 4-[5-(4-fluorophenyl)-3-(trifluoromethyl)-1H-pyrazol-1-yl]-benzenesulfonamide], the “temperature at which the form is the equilibrium solid phase (thermodynamically more stable)” value is at most 71.0 °C. In the case of `NS(=O)(=O)c1ccc(-n2nc(C(F)(F)F)cc2-c2ccc(F)cc2)cc1` [Form II, 4-[5-(4-fluorophenyl)-3-(trifluoromethyl)-1H-pyrazol-1-yl]-benzenesulfonamide], the “temperature at which the form is the equilibrium solid phase (thermodynamically more stable)” value is at least 71.5 °C. For the same compound, the “relative stability of the crystal form” value (ambient temperature and pressure) is listed as “unstable with respect to another form, Form I”.
